Results as given in patent publication US20240342120A1, “MULTIPLE MYELOMA TREATMENT” (Vanda Pharmaceuticals Inc., priority 2013, published 2024).

How the values were obtained:
Assay type in all cases: cell-based
[1] = system: CDC2; test: Affymetrix gene expression, CDC2, cells treated 24 hours; conditions: probe 203214_x_at; human retinal pigment epithelial cell line; 24 hours vs vehicle; Instance ID 10005533
Description: (§1) A human retinal pigment epithelial cell line was treated with trichostatin or vehicle for 24 hours and gene expression for 22,238 probe sets covering 12,490 genes was generated using an Affymetrix instrument.

[2] = system: TOP2A; test: Affymetrix gene expression, TOP2A, cells treated 24 hours; conditions: human retinal pigment epithelial cell line, 24 hours vs vehicle
Description: as §1

[3] = system: CCNB1, AURKB, CDC2, BIRC5, KIF11, KIF2C, TOP2A, ASPM, CKS1B, and WEE1; test: Affymetrix gene expression, ten-gene summary, cells treated 24 hours; conditions: human retinal pigment epithelial cell line; 24 hours vs vehicle; summary in words of Table 1
Description: as §1

## CC(/C=C/C(=O)NO)=C\[C@@H](C)C(=O)c1ccc(N(C)C)cc1 [trichostatin A, 7-[4-(dimethylamino)phenyl]-N-hydroxy-4,6-dimethyl-7-oxohepta-2,4-dienamide]
[1]
  Fold Expression Δ, CDC2: −11.83 Fold
[2]; probe 201291_s_at, Instance ID 10005533
  Fold Expression Δ, TOP2A: −28.22 Fold
[2]; probe 201292_at, Instance ID 10005532
  Fold Expression Δ, TOP2A: −31.95 Fold
[3]
  effect on expression of CCNB1, AURKB, CDC2, BIRC5, KIF11, KIF2C, TOP2A, ASPM, CKS1B, and WEE1: significant downregulation
